According to PMC9719519, “Non-classical ferroptosis inhibition by a small molecule targeting PHB2” (Nature Communications, 2022):

Assays:
Test in all cases: biochemical
Parameters in all cases: Eurofins recombinant human kinase profiling, remaining kinase activity as % of control, 10 uM ATP
Conditions in all cases: ATP 10 uM; read-out: %Ctrl@10 μM
Aurora-B(h) = molecular target: T1, Aurora-B(h) (Homo sapiens, UniProt Q96GD4)
T1 construct: gene AURKB
In short: (§1)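 Recombinant human kinases, 401 in total, screened using an outsourced kinase profiling assay.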

B-Raf(h) = molecular target: T2, B-Raf(h) (Homo sapiens, UniProt P15056)
T2 construct: gene BRAF
In short: as §1

CaMKIß(h) = molecular target: T3, CaMKIß(h) (Homo sapiens, UniProt Q6P2M8)
T3 construct: gene PNCK
In short: as §1

EphA2(h) = EphA2(h) (Homo sapiens, UniProt P29317)
In short: as §1

EphA7(h) = EphA7(h) (Homo sapiens, UniProt Q15375)
EphA7(h), sequence (Q15375 whole entry): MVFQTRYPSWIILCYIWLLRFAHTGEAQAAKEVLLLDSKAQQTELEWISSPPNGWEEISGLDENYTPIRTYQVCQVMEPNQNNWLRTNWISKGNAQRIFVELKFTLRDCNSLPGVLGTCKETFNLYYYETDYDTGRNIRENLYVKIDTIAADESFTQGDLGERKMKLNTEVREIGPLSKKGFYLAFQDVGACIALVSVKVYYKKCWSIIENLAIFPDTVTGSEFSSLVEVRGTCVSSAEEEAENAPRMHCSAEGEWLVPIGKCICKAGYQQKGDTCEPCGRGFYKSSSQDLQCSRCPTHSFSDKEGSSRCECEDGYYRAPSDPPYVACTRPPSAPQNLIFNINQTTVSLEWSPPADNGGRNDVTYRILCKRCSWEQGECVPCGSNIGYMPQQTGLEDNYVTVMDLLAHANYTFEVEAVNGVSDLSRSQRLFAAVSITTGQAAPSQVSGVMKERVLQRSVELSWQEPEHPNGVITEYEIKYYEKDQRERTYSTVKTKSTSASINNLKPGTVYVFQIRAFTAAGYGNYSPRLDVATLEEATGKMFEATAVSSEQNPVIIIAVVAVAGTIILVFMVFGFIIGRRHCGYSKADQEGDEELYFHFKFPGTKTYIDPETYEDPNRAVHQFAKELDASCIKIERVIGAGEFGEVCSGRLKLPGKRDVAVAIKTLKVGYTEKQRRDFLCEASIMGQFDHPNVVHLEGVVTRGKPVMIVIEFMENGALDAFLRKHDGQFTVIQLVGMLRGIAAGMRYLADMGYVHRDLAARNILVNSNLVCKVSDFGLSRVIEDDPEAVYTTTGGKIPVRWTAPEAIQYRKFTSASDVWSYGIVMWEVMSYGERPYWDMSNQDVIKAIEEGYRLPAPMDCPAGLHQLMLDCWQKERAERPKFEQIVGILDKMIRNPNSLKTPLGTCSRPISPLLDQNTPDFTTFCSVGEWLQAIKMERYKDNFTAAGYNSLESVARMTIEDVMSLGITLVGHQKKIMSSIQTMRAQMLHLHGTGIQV
In short: as §1

EphB1(h) = EphB1(h) (Homo sapiens, UniProt P54762)
In short: as §1

Fyn(h) = Fyn(h) (Homo sapiens, UniProt P06241)
In short: as §1

GCK(h) = molecular target: T4, GCK(h) (Homo sapiens, UniProt Q12851)
T4 construct: gene MAP4K2
In short: as §1

GRK6(h) = GRK6(h) (Homo sapiens, UniProt P43250)
GRK6(h), sequence (P43250 whole entry): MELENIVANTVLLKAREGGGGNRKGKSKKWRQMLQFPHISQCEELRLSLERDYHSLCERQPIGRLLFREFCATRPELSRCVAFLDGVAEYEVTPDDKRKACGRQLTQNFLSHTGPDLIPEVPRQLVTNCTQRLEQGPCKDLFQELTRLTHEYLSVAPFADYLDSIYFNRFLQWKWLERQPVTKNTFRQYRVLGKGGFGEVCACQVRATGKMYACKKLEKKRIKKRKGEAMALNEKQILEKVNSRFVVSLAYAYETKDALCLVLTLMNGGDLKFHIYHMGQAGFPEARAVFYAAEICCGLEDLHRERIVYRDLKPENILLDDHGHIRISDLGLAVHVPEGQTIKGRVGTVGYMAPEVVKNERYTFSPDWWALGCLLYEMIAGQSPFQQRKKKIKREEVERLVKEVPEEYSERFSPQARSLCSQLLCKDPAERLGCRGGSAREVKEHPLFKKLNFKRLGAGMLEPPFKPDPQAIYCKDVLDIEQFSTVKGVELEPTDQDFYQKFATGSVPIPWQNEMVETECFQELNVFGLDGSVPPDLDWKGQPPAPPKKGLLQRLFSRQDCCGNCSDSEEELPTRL
In short: as §1

GSK3α(h) = molecular target: T5, GSK3α(h) (Homo sapiens, UniProt P49840)
T5 construct: gene GSK3A
In short: as §1

IR(h), activated = molecular target: T6, IR(h), activated (Homo sapiens, UniProt P06213)
T6 construct: gene INSR
T6 sequence (P06213 whole entry): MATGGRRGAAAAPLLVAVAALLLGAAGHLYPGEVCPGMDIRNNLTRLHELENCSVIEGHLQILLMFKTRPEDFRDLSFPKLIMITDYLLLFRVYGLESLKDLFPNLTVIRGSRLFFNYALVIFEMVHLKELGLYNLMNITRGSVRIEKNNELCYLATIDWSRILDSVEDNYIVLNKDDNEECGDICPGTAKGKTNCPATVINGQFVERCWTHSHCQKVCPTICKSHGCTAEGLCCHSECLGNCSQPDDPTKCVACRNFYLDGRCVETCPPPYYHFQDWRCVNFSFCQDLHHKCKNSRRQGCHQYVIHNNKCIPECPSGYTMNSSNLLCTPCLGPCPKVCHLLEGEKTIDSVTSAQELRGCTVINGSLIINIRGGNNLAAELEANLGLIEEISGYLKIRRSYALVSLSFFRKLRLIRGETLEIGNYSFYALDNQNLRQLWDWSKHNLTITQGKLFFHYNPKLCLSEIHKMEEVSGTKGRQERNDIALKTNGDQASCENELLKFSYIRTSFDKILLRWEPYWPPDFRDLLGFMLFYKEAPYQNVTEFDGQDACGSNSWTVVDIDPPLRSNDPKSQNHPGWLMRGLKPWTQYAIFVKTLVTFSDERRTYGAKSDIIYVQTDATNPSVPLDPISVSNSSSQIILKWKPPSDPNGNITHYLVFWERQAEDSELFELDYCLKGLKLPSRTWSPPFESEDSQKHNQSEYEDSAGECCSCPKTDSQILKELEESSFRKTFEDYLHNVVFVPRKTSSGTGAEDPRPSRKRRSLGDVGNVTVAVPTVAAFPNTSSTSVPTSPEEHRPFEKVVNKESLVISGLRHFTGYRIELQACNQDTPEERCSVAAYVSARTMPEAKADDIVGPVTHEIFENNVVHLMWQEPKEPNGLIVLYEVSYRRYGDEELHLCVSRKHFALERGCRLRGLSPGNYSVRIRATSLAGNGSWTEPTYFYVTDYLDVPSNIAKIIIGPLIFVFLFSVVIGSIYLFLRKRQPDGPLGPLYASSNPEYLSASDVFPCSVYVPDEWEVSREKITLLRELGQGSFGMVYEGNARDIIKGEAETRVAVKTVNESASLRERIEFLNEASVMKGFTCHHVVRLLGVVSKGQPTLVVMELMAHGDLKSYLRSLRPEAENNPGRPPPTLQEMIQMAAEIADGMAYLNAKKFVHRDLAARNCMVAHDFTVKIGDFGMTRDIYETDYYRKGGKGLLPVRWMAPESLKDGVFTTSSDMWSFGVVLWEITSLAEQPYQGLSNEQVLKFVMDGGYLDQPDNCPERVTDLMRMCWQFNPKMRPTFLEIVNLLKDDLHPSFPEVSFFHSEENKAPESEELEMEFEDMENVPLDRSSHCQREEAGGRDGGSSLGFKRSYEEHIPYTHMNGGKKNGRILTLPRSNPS
In short: as §1

MINK(h) = molecular target: T7, MINK(h) (Homo sapiens, UniProt Q8N4C8)
T7 construct: gene MINK1
T7 sequence (Q8N4C8 whole entry): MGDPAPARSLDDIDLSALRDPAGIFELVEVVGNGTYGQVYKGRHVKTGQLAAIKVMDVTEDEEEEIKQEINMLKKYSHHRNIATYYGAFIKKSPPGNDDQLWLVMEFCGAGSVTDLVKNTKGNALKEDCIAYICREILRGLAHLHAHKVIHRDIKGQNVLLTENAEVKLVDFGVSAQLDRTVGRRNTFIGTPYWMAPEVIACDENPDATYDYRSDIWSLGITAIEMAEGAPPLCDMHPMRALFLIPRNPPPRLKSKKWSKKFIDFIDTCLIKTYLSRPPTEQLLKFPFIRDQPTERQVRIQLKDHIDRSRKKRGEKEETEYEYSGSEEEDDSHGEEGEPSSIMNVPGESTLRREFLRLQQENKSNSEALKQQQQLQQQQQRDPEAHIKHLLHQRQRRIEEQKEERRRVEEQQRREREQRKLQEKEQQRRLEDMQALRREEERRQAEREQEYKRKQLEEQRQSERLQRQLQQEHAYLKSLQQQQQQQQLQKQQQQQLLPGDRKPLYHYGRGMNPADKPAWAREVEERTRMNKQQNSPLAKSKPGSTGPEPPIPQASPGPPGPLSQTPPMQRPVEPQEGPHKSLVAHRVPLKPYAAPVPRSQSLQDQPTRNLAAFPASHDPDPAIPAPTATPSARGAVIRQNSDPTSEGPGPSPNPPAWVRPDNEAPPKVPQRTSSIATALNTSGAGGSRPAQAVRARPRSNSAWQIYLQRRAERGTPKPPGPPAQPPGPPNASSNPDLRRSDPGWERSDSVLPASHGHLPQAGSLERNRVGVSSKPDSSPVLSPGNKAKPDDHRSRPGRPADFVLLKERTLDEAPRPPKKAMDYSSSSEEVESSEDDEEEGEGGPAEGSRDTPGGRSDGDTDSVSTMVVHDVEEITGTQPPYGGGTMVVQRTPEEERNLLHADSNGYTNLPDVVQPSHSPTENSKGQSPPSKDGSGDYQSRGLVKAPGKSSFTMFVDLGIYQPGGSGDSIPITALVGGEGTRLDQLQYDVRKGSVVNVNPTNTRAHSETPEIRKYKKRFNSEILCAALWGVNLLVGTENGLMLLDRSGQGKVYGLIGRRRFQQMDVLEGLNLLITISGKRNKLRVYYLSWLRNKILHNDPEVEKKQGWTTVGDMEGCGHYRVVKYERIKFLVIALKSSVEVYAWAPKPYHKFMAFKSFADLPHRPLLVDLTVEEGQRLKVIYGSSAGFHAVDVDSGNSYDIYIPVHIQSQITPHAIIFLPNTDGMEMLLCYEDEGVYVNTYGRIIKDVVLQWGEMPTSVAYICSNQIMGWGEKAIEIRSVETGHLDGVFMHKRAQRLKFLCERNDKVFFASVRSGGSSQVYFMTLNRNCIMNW
In short: as §1

MST1(h) = molecular target: T8, MST1(h) (Homo sapiens, UniProt Q13043)
T8 construct: gene STK4
In short: as §1

MYLK2(h) = MYLK2(h) (Homo sapiens, UniProt Q9H1R3)
In short: as §1

Mnk2(h) = molecular target: T9, Mnk2(h) (Homo sapiens, UniProt Q9HBH9)
T9 construct: gene MKNK2
T9 sequence (Q9HBH9 whole entry): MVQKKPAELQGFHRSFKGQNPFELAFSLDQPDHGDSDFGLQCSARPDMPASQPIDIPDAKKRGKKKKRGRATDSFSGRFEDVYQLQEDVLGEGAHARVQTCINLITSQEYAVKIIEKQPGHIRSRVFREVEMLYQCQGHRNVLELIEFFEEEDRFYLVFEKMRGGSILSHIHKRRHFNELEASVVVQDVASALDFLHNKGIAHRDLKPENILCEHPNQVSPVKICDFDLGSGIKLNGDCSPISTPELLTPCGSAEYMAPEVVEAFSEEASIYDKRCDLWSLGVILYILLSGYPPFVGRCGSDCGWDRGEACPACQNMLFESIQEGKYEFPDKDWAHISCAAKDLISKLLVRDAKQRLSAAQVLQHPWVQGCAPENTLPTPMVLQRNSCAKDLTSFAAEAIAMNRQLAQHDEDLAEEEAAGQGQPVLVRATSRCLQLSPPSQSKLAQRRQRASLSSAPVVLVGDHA
In short: as §1

NEK2(h) = NEK2(h) (Homo sapiens, UniProt P51955)
In short: as §1

NEK7(h) = NEK7(h) (Homo sapiens, UniProt Q8TDX7)
NEK7(h), sequence (Q8TDX7 whole entry): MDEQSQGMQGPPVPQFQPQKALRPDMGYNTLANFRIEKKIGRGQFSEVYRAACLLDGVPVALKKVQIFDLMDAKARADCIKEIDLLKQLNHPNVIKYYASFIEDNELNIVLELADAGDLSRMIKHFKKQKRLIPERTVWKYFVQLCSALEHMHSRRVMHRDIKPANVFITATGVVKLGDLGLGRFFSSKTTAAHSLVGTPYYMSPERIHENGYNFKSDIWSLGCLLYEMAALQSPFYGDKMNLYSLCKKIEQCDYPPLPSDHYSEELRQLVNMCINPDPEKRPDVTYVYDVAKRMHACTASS
In short: as §1

[1] = molecular target: T10, PI3 Kinase (p110(E545K)/p85)(h) (Homo sapiens, UniProt P42336, E545K)
T10 construct: gene PIK3CA
In short: as §1

PKG1α(h) = molecular target: T11, PKG1α(h) (Homo sapiens, UniProt Q13976)
T11 construct: gene PRKG1; isoform 1alpha
In short: as §1

SAPK2a(h) = molecular target: T12, SAPK2a(h) (Homo sapiens, UniProt Q16539)
T12 construct: gene MAPK14
In short: as §1

SIK(h) = molecular target: T13, SIK(h) (Homo sapiens, UniProt P57059)
T13 construct: gene SIK1
In short: as §1

STK25(h) = STK25(h) (Homo sapiens, UniProt O00506)
In short: as §1

TrkA(h) = molecular target: T14, TrkA(h) (Homo sapiens, UniProt P04629)
T14 construct: gene NTRK1
In short: as §1

## C1=C(c2nc(-c3cnn(C4CCNCC4)c3)cn3cc(-c4ccccc4)nc23)CCOC1 [YL-939]
Aurora-B(h)
  remaining activity at 10 µM: 89%
B-Raf(h)
  remaining activity at 10 µM: 84%
CaMKIß(h)
  remaining activity at 10 µM: 88%
EphA2(h)
  remaining activity at 10 µM: 82%
EphA7(h)
  remaining activity at 10 µM: 99%
EphB1(h)
  remaining activity at 10 µM: 99%
Fyn(h)
  remaining activity at 10 µM: 81%
GCK(h)
  remaining activity at 10 µM: 76%
GRK6(h)
  remaining activity at 10 µM: 87%
GSK3α(h)
  remaining activity at 10 µM: 119%
IR(h), activated
  remaining activity at 10 µM: 91%
MINK(h)
  remaining activity at 10 µM: 95%
MST1(h)
  remaining activity at 10 µM: 91%
MYLK2(h)
  remaining activity at 10 µM: 52%
Mnk2(h)
  remaining activity at 10 µM: 74%
NEK2(h)
  remaining activity at 10 µM: 99%
NEK7(h)
  remaining activity at 10 µM: 89%
[1]
  remaining activity at 10 µM: 95%
PKG1α(h)
  remaining activity at 10 µM: 90%
SAPK2a(h)
  remaining activity at 10 µM: 103%
SIK(h)
  remaining activity at 10 µM: 100%
STK25(h)
  remaining activity at 10 µM: 82%
TrkA(h)
  remaining activity at 10 µM: 75%
